ChEMBL document CHEMBL1134260, “Adamantylaminopyrimidines and -pyridines are potent inducers of tumor necrosis factor-alpha” (2001)
Calls of active or inactive are those of the source. The calls are words filed in the database; no cut-off is given here.

Tests used:
Mus musculus [1] = species on record: Mus musculus; assay: Tested for the ability to stimulate TNF-alpha production in B78-H1 murine melanoma cells transduced with gene for human TNF-alpha, clone-9 at 10 uM concentration; In active; assay type: functional
[2] = TNF-alpha stimulatory activity in B78/TNF/9 melanoma cells evaluated by ELISA method; assay type: functional, Mus musculus; parameters: concentration or dose not given beside the values
[3] = Tested for the ability to stimulate TNF-alpha production in B78-H1 murine melanoma cells transduced with gene for human TNF-alpha, clone-9 at 10 uM concentration; assay type: functional, Mus musculus
Mus musculus [4] = species on record: Mus musculus; assay: Tested for the ability to stimulate TNF-alpha production in B78-H1 murine melanoma cells transduced with gene for human TNF-alpha, clone-9 at 10 nM concentration; In active; assay type: functional

Structure (SMILES) | TNF-alpha production (% of control) [2] | further results
c1ccc(NC23CC4CC(CC(C4)C2)C3)nc1 | ~170% | Enhancement (Mus musculus [1]): inactive
NC12CC3CC(CC(C3)C1)C2 |  | Enhancement (Mus musculus [1]): inactive
Cc1cc(Cl)nc(NC23CC4CC(CC(C4)C2)C3)n1 | ~220% | 
c1cncc(NC23CC4CC(CC(C4)C2)C3)c1 | ~190% | 
Cc1ccnc(NC23CC4CC(CC(C4)C2)C3)c1 | ~200% | 
c1cc(NC23CC4CC(CC(C4)C2)C3)ccn1 | ~130% | 
Cc1cccc(NC23CC4CC(CC(C4)C2)C3)n1 | ~260% | Enhancement [3]: 10%
Clc1ccc(NC23CC4CC(CC(C4)C2)C3)cn1 | ~100% | 
c1cnc(NC23CC4CC(CC(C4)C2)C3)nc1 | ~200% | 
Brc1cnc(NC23CC4CC(CC(C4)C2)C3)nc1 | ~150% | 
Cc1cc(C)nc(NC23CC4CC(CC(C4)C2)C3)n1 | ~240% | Enhancement (Mus musculus [4]): inactive
Cc1cc(C)nc(NC23CC4CC(CC(C4)C2)C3)c1 | ~250% | Enhancement (Mus musculus [1]): inactive
Cc1ccc(NC23CC4CC(CC(C4)C2)C3)nc1 | ~200% | 
Brc1ccc(NC23CC4CC(CC(C4)C2)C3)nc1 | ~140% | 
Cc1cc(N)nc(NC23CC4CC(CC(C4)C2)C3)n1 | ~180% | 
